No end group written: not given here.

This experiment has as its system drug-resistant Mycobacterium tuberculosis. Conditions: drug-resistant Mycobacterium tuberculosis (PAS, streptomycin, INH); peptide 10 micrograms per ml; seven days.

As to SFLLRNPNDKYEPF-OH [TRAP-14], the % inhibition (commonly the relative decrease from the control value, in per cent) is on record as 0.0%.
